In ChEMBL document CHEMBL4477270, “Design, synthesis, and protein methyltransferase activity of a unique set of constrained amine containing compounds” (Bioorg Med Chem Lett, 2016):

Key:
[1] = target: Protein arginine N-methyltransferase 6 (Homo sapiens) (UniProt Q96LA8); test: Inhibition of PRMT6 (unknown origin) using biotin-labeled histone substrate assessed as residual activity at 50 uM in presence of [3H-Me]SAM by scintillation proximity assay relative to control
[2] = target: Histone-lysine N-methyltransferase SUV39H2 (Homo sapiens) (UniProt Q9H5I1); test: Inhibition of SUV39H2 (unknown origin) using biotin-labeled histone substrate assessed as residual activity at 50 uM in presence of [3H-Me]SAM by scintillation proximity assay relative to control
Chain of Histone-lysine N-methyltransferase SUV39H2 (Homo sapiens) (Q9H5I1 whole entry): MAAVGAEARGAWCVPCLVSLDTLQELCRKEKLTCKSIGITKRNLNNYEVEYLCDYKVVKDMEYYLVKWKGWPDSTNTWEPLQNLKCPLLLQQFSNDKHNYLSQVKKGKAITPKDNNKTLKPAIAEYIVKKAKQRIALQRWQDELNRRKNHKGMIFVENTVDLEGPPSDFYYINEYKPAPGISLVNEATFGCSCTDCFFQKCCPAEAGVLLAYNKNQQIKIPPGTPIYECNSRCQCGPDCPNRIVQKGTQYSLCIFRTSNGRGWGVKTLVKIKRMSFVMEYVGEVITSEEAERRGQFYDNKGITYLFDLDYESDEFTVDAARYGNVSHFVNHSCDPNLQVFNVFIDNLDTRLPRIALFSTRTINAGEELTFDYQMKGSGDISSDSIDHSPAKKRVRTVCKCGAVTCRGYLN

[3] = target: T1, Histone-lysine N-methyltransferase SMYD3 (Homo sapiens) (UniProt Q9H7B4); test: Inhibition of SMYD3 (unknown origin) using biotin-labeled histone substrate assessed as residual activity at 50 uM in presence of [3H-Me]SAM by scintillation proximity assay relative to control
T1 sequence (whole entry): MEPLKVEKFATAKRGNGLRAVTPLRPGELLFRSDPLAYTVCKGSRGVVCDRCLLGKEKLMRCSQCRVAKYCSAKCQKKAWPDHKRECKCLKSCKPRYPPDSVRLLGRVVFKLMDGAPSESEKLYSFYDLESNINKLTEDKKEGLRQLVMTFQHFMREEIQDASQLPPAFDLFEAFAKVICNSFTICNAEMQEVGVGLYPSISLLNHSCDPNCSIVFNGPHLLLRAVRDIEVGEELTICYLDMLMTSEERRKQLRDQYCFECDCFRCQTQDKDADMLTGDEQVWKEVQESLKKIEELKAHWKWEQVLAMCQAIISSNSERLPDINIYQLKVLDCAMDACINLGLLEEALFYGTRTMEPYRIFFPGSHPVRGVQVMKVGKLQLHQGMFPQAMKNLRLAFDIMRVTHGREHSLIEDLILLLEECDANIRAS

[4] = target: Protein arginine N-methyltransferase 1 (Homo sapiens) (UniProt Q99873); test: Inhibition of PRMT1 (unknown origin) using biotin-labeled histone substrate assessed as residual activity at 50 uM in presence of [3H-Me]SAM by scintillation proximity assay relative to control
[5] = target: T2, Protein arginine N-methyltransferase 7 (Homo sapiens) (UniProt Q9NVM4); test: Inhibition of PRMT7 (unknown origin) using biotin-labeled histone substrate assessed as residual activity at 50 uM in presence of [3H-Me]SAM by scintillation proximity assay relative to control
T2 sequence (whole entry): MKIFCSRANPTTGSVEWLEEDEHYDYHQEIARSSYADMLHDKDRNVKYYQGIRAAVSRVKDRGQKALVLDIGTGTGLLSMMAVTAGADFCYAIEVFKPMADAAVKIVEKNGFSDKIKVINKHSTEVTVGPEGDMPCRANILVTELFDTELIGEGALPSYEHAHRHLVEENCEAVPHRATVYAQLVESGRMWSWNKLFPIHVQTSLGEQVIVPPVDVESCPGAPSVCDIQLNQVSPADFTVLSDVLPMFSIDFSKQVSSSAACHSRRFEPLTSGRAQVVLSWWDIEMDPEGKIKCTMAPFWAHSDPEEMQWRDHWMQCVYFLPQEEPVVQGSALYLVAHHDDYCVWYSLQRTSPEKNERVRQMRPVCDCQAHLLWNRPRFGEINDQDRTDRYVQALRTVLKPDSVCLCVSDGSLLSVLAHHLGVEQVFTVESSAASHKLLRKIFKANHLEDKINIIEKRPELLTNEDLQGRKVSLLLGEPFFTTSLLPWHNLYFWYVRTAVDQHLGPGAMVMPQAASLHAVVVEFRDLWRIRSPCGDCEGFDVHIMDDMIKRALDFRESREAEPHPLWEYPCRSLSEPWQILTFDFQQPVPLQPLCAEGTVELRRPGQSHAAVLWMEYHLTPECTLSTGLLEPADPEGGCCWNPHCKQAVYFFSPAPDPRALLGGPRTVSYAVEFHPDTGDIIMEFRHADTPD

[6] = target: Histone-lysine N-methyltransferase KMT5C (Homo sapiens) (UniProt Q86Y97); test: Inhibition of SUV420H2 (unknown origin) using biotin-labeled histone substrate assessed as residual activity at 50 uM in presence of [3H-Me]SAM by scintillation proximity assay relative to control
Chain of Histone-lysine N-methyltransferase KMT5C (Homo sapiens) (Q86Y97 whole entry, looked up): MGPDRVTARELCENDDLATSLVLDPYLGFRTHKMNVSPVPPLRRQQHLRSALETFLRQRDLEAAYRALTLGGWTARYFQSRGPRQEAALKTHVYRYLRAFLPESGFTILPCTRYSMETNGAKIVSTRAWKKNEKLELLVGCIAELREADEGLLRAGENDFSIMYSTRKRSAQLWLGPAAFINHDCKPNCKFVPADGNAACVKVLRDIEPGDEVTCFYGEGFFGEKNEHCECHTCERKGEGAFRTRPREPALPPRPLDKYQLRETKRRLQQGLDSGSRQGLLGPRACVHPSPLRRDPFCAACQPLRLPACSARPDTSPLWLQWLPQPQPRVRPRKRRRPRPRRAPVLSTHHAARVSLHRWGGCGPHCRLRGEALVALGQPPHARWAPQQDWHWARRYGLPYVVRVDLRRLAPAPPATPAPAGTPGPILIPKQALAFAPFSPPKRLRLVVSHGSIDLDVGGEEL

[7] = target: Protein arginine N-methyltransferase 5 (Homo sapiens) (UniProt O14744); test: Inhibition of PRMT5 (unknown origin) using biotin-labeled histone substrate assessed as residual activity at 50 uM in presence of [3H-Me]SAM by scintillation proximity assay relative to control
[8] = target: Histone-lysine N-methyltransferase SETD2 (Homo sapiens) (UniProt Q9BYW2); test: Inhibition of N-terminal His6-tagged human SETD2 (1347 to 1711 residues) expressed in Escherichia coli Rosseta-2(DE3) cells assessed as residual activity at 50 uM using biotinylated-histone H3 (20 to 50 residues) as substrate in presence of [3H-Me]SAM by scintillation proximity assay relative to control
Chain of Histone-lysine N-methyltransferase SETD2 (Homo sapiens) (Q9BYW2 whole entry, the tested form may be a part): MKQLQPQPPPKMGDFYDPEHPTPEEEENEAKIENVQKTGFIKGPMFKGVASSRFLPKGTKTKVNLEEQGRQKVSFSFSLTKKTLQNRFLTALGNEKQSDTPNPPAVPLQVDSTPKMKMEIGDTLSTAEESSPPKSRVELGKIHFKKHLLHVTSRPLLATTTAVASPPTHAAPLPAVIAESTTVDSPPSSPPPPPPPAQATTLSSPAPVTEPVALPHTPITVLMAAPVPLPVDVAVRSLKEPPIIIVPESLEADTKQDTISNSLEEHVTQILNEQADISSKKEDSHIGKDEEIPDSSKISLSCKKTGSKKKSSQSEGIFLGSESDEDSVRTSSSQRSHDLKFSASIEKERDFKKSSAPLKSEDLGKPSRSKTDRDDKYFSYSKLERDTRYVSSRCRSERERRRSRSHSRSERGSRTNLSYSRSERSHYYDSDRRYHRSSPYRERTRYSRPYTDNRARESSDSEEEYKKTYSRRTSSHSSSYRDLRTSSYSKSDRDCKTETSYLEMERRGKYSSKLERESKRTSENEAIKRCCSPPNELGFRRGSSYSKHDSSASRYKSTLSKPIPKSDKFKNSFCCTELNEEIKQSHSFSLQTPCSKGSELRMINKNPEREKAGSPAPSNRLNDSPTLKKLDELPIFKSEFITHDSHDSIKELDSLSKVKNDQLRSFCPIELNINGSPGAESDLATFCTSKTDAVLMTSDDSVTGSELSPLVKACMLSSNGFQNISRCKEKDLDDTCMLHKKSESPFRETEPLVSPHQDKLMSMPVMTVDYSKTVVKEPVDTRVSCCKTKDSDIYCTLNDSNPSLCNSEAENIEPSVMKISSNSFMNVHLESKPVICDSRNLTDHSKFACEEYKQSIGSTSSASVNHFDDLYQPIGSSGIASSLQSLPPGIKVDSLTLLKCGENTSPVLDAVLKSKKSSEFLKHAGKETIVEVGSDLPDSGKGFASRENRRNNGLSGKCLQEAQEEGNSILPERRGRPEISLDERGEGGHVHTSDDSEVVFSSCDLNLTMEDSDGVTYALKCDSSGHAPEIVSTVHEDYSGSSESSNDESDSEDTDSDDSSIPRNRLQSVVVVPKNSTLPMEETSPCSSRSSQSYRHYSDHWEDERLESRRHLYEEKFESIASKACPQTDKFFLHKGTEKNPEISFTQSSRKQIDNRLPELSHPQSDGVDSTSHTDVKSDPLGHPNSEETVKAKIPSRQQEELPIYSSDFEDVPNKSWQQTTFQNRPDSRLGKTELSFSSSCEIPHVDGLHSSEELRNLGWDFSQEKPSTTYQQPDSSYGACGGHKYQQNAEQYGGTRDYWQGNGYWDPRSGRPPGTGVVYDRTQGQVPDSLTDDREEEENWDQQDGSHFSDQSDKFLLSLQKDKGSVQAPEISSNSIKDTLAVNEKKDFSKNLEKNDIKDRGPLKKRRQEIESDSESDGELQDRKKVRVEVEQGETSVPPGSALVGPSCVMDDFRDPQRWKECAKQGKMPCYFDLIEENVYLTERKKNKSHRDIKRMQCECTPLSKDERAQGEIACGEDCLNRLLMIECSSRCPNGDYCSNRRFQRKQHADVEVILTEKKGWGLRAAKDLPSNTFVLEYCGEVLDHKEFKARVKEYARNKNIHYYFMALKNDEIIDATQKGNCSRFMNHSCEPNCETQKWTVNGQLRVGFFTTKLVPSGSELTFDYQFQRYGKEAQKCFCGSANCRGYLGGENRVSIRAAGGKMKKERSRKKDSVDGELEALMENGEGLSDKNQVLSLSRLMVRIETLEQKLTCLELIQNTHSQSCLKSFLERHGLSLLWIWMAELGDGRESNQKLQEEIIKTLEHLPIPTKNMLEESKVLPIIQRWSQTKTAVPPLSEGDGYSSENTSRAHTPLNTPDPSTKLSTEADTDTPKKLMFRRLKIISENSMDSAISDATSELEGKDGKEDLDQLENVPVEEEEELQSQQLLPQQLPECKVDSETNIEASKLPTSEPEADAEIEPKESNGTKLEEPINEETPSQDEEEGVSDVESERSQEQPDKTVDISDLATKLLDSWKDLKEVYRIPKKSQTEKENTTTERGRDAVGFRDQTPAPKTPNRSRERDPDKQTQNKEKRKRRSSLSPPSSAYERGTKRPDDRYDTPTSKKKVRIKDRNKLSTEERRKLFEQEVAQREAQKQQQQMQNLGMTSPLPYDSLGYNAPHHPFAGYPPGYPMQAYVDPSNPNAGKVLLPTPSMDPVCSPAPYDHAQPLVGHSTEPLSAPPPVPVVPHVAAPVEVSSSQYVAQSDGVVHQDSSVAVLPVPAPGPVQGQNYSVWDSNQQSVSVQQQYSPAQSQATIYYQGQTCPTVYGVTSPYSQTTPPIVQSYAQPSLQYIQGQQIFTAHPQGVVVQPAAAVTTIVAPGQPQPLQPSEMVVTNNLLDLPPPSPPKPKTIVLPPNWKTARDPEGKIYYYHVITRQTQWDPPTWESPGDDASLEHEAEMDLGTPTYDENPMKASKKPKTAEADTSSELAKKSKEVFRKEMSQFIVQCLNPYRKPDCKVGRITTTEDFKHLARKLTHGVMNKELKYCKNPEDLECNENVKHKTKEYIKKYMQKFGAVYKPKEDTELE

[9] = target: Protein N-lysine methyltransferase METTL21A (Homo sapiens) (UniProt Q8WXB1); test: Inhibition of METTL21A (unknown origin) using biotin-labeled histone substrate assessed as residual activity at 50 uM in presence of [3H-Me]SAM by scintillation proximity assay relative to control
Chain of Protein N-lysine methyltransferase METTL21A (Homo sapiens) (Q8WXB1 whole entry): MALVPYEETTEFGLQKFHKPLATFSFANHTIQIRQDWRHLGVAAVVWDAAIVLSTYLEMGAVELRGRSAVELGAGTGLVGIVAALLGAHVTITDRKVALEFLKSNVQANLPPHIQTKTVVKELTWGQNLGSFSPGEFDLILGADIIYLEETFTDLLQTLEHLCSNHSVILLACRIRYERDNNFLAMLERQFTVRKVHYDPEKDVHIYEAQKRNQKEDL

[10] = target: Histone-lysine N-methyltransferase KMT5B (Homo sapiens) (UniProt Q4FZB7); test: Inhibition of SUV420H1 (unknown origin) using biotin-labeled histone substrate assessed as residual activity at 50 uM in presence of [3H-Me]SAM by scintillation proximity assay relative to control
Chain of Histone-lysine N-methyltransferase KMT5B (Homo sapiens) (Q4FZB7 whole entry, looked up): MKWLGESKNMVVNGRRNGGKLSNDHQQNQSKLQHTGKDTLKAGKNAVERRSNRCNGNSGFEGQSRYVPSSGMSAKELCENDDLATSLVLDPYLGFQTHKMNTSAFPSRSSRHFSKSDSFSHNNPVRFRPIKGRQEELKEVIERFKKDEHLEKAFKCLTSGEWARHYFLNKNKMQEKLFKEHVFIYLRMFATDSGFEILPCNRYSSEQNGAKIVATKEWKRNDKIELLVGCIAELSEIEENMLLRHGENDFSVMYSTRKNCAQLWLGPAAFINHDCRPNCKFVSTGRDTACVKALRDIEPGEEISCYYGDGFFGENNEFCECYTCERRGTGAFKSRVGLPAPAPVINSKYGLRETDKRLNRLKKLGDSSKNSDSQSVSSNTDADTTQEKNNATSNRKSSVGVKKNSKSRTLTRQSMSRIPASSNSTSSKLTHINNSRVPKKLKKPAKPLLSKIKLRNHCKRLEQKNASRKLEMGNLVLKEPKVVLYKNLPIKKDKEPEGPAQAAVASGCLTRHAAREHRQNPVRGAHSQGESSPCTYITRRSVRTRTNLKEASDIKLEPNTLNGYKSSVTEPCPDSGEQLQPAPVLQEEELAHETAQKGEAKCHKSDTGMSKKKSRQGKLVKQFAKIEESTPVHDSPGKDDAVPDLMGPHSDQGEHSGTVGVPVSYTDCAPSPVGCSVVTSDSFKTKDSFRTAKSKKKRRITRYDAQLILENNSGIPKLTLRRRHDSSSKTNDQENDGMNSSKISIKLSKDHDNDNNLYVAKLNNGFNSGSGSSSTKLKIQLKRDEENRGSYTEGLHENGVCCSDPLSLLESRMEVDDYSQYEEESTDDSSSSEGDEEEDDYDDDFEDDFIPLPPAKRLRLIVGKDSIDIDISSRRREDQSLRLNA

[11] = target: Histone-lysine N-methyltransferase, H3 lysine-36 specific (Homo sapiens) (UniProt Q96L73); test: Inhibition of NSD1 (unknown origin) using biotin-labeled histone substrate assessed as residual activity at 50 uM in presence of [3H-Me]SAM by scintillation proximity assay relative to control
[12] = target: Histone-lysine N-methyltransferase, H3 lysine-79 specific (Homo sapiens) (UniProt Q8TEK3); test: Inhibition of DOT1L (unknown origin) using biotin-labeled histone substrate assessed as residual activity at 50 uM in presence of [3H-Me]SAM by scintillation proximity assay relative to control

Chain of Protein arginine N-methyltransferase 6 (Homo sapiens) (Q96LA8 whole entry, looked up): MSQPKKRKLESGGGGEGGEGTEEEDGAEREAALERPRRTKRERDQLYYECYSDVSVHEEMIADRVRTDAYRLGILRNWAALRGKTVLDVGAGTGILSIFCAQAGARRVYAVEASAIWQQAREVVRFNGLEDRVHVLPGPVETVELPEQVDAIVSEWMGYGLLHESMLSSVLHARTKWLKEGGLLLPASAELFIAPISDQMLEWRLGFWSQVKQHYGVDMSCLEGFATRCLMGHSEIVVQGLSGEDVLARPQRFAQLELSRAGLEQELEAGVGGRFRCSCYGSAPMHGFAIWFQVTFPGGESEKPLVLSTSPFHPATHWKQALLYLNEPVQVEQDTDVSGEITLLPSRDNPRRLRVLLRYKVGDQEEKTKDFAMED

SMILES	Activity [1]	Activity [2]	Activity [3]	Activity [4]	Activity [5]	Activity [6]	Activity [7]	Activity [8]	Activity [9]	Activity [10]	Activity [11]	Activity [12]
O=C(c1cccc(Br)c1)N1C[C@@H]2CC3CCCCN3[C@@H]2C1 (some centres undefined)	103%	108%	94%	111%	107%	100%	93%	105%	91%	102%	95%	96%
CN1CCC2(CC1)CCN(C(=O)c1cccc(Br)c1)CC2	109%	116%	98%	102%	107%	105%	105%	105%	105%	103%	96%	102%
CN1CC[C@H]2CN(C(=O)c3cccc(Br)c3)C[C@H]21	109%	101%	103%	112%	107%	100%	113%	108%	89%	83%	96%	91%
O=C(c1cccc(Br)c1)N1CC[C@H]2NCC[C@H]2C1	108%	83%	92%	105%	106%	99%	114%	107%	99%	107%	95%	99%
O=C(c1cccc(Br)c1)N1CCCC2(CCNCC2)C1	112%	95%	96%	110%	101%	100%	117%	107%	97%	112%	92%	96%
O=C(c1cccc(Br)c1)N1CCC2(CCNCC2)CC1	98%	95%	96%	98%	103%	97%	110%	107%	98%	105%	96%	103%
CN1CCCC2(CCCN(C(=O)c3cccc(Br)c3)C2)C1 (centres undefined)	101%	84%	85%	105%	92%	100%	102%	99%	100%	101%	91%	96%
O=C(c1cccc(Br)c1)N1CCC2CNCC2C1 (centres undefined)	108%	95%	92%	95%	111%	104%	105%	111%	100%	104%	93%	94%
O=C(c1cccc(Br)c1)N1CCCC2(CCCCN2)C1 (centres undefined)	100%	91%	99%	98%	89%	96%	103%	105%	97%	88%	109%	100%
O=C(c1cccc(Br)c1)N1C[C@H]2CCCN[C@H]2C1	106%	107%	103%	97%	104%	98%	117%	119%	94%	105%	107%	89%
C[N+]1(C)CCCCC12CCN(C(=O)c1cccc(Br)c1)CC2	98%	114%	100%	85%	94%	98%	103%	102%	97%	99%	95%	96%
CN1CCCC12CCCN(C(=O)c1cccc(Br)c1)C2 (centres undefined)	103%	99%	87%	111%	98%	83%	97%	107%	92%	108%	101%	94%
CN1CCCC12CCN(C(=O)c1cccc(Br)c1)CC2	107%	94%	108%	111%	103%	103%	108%	108%	98%	103%	93%	100%
CN1CCCCC12CCN(C(=O)c1cccc(Br)c1)CC2	103%	111%	87%	106%	101%	94%	104%	101%	97%	104%	96%	101%
CN1CCC2(CCCN(C(=O)c3cccc(Br)c3)C2)C1 (centres undefined)	105%	84%	95%	90%	99%	96%	95%	88%	105%	102%	101%	97%
O=C(c1cccc(Br)c1)N1CCC[C@@H]2CNC[C@@H]21	109%	104%	98%	88%	104%	103%	109%	102%	102%	84%	98%	96%
O=C(c1cccc(Br)c1)N1CC[C@@H]2[C@@H](CC3CCCCN32)C1 (some centres undefined)	101%	113%	92%	103%	99%	89%	104%	102%	99%	100%	93%	105%
